Source: patent US20030224992A1, “Transcription factor modulators and uses thereof” (Praecis Pharmaceuticals Inc., priority 2002, published 2003)

System: androgen responsive gene, kallikrein 3 (PSA II transcripts) in LNCaP cells
Assay: Down-regulation of androgen receptor responsive gene expression by ARE (real time PCR)
Assay type: cell-based
Conditions: electroporation, 1, 5 or 20 μM, 10 nM DHT, 4 hours

In the case of “5′-AGTCTACGAGTGGGGTTCTTTTTTA-3′ (SEQ ID NO: 24) (DNA AGTCTACGAGTGGGGTTCTTTTTTA; chemistry not given here) [scrambled ARE]”, the “steady state levels of PSA II transcripts normalized to actin (DHT induction)” value was “this was not observed”.
